In US11590129B2, “Combination therapy with an antitumor alkaloid” (PHARMA MAR, S.A., priority 2010, dated 2023):
Where two headings read alike, the source gives them in different places.

Experiments:
[1] = test system: A549 human lung carcinoma cell line; experiment: MTT cytotoxicity assay in A549 cells: IC50 of single agents and combinations with PM01183; assay type: cell-based; conditions: Homo sapiens
Procedure: (§1) Additional serial dilutions were prepared in serum-free culture medium to achieve a final 4× concentration. Aliquots of 50 μL of each diluted compound were added per well.
A549 was the human lung carcinoma cell line selected for this assay.
(§2) a. […] Briefly, cells were harvested and seeded in 96 well microtiter plates at a density of 5,000 cells in 150 μL of culture medium and incubated for 24 hours in drug-free medium before treatment with vehicle alone or test compounds for 72 h.
(§3) The cytotoxic effect was measured by the MTT reduction assay, in which 3-(4,5-Dimethylthiazol-2-yl)-2,5-diphenyltetrazolium bromide, a tetrazole, which is reduced to purple formazan in the mitochondria of living cells, was used. MTT (50 μL of 1 mg/mL stock solution) was added to the wells and incubated for 8 hours at 37° C. until formazan crystals were formed. After gently removing the culture medium, DMSO was added to dissolve the insoluble purple formazan product into a colored solution. […] Results were expressed as percentage of control cell growth.
(§4) b. In a second set of assays, A549 human tumor cells were incubated with PM01183 in combination with each of the agents mentioned above.
(§5) As a visual aid, response values were plotted on a scatter plot with dose ratios given on the x-axis and % response values on the y-axis. […] In cases where response values at the two endpoints were approximately equivalent, points lying above or below this predicted line of additivity could be interpreted as representing antagonistic or synergistic drug interaction, respectively.

[2] = test system: A673 human rhabdomyosarcoma cell line; experiment: cells; conditions: Homo sapiens, A673, 72 h
Procedure: as §2, §3, §4, §5, §1
A673 was the human rhabdomyosarcoma cell line selected for this assay.

[3] = test system: HGC-27 human gastric carcinoma cell line; experiment: cells; conditions: Homo sapiens, HGC-27, 72 h
Procedure: as §2, §3, §4, §5, §1
HGC-27 was the human gastric carcinoma cell line selected for this assay.

[4] = test system: IGROV-1 human ovarian adenocarcinoma cell line; experiment: cells; conditions: Homo sapiens, IGROV-1, 72 h
Procedure: as §2, §3, §4, §5, §1
IGROV-1 was the human ovarian adenocarcinoma cell line selected for this assay.

[5] = test system: HepG2 human hepatocellular liver carcinoma cell line; experiment: MTT cytotoxicity assay in HepG2 cells: IC50 of single agents and combinations with PM01183; assay type: cell-based; conditions: Homo sapiens
Procedure: as §2, §3, §4, §5, §1
HepG2 was the human hepatocellular liver carcinoma cell line selected for this assay.

[6] = test system: MDA-MB-231 human breast adenocarcinoma cell line; experiment: cells; conditions: Homo sapiens, MDA-MB-231, 72 h
Procedure: as §2, §3, §4, §5, §1

[7] = test system: RXF-393 human kidney carcinoma cell line; experiment: cells; conditions: Homo sapiens, RXF 393, 72 h
Procedure: as §2, §3, §4, §5, §1

[8] = test system: HT-29 human colon adenocarcinoma cell line; experiment: cells; conditions: Homo sapiens, HT-29, 72 h
Procedure: as §2, §3, §4, §5, §1
HT-29 was the human colon adenocarcinoma cell line selected for this assay.

[9] = test system: PC-3 human prostate cancer cell line; experiment: cells; conditions: Homo sapiens, PC-3, 72 h
Procedure: as §2, §3, §4, §5, §1
PC-3 was the human prostate adenocarcinome cell line selected for this assay.

A2780 tumors = experiment: Human ovarian tumor xenografts (A2780) in athymic nude mice, tumor volume % T/C; assay type: in vivo
Procedure: Female athymic nude mice (Harlan Laboratories Models, S.L. (Barcelona, Spain) were utilized for all experiments. Animals were housed in individually ventilated cages, up to ten per cage in a 12-hour light-dark cycle at 21-23° C. and 40-60% humidity. The mice were allowed free access to irradiated standard rodent diet and sterilized water. Animals were acclimated for at least 5 days prior to tumor implantation with a tumor cell suspension.
The formula to calculate volume for a prolate ellipsoid was used to estimate tumor volume (mm^3) from 2-dimensional tumor measurements: Tumor volume (mm^3)=[L×W^2]÷2, where L is the length and it is the longest diameter in mm, and W is the width and it is the shortest diameter in mm of a tumor. Assuming unit density, volume was converted to weight (i.e., 1 mm^3=1 mg). Tumor volume and animal body weights were measured 2-3 times per week starting form the first day of treatment (Day 0).
PM01183 was provided in the form of vials of lyophilized PM01183 cake which was reconstituted with water for infusion to a concentration of 0.2 mg/mL. The PM01183 stock solution was further diluted in 5% glucose solution for injection to the dosing formulation concentrations. […] Vinorelbine was provided as a solution prepared by diluting the product with 0.9% saline solution.
Dose level groups were administered either as single agents or in combination.
Comparison of the median tumor volume in the treatment groups (T) to the median tumor volume in the control group (T/C×100%) was used for evaluation of the antitumor efficacy.
Day 9 for PM01183 and vinorelbine study) using the median-effect principle (Chou T. C. Pharmacol. Rev.

[10] = test system: U87-MG human glioblastoma cell line; experiment: cells; conditions: Homo sapiens, U-87 MG, 72 h
Procedure: as §2, §3, §4, §5, §1
U87-MG was the human glioblastoma cell line selected for this assay.

[11] = A549, 72 hours drug exposure, MTT, read-out: IC50
[12] = HepG2, 72 hours drug exposure, MTT, read-out: IC50
[13] = vinorelbine 4.0 mg/kg iv days 0,7
[14] = vinorelbine 8.0 mg/kg iv days 0,7

Row | Compound | IC50 [2] | IC50 [3] | IC50 [4] | IC50 [6] | IC50 [7] | IC50 [8] | IC50 [1, 11] | IC50 [9] | IC50 [5, 12] | further results
1 | O=P1(N(CCCl)CCCl)NCCCO1 (stereo not shown) [Cyclophosphamide, cyclophosphamide] | 1000 µM | 1000 µM | 1000 µM | 1000 µM | 1000 µM | 1000 µM | – | – | – | IC50 ([1]; A549, 72 h): 1000 µM; IC50 ([5]; HepG2, 72 h): 1000 µM
2 | O=NN(CCCl)C(=O)NCCCl [Carmustine, carmustine] | – | – | 712 µM | 900 µM | – | – | 1000 µM | – | – | –
3 | CCC1=C[C@@H]2CN(C1)Cc1c([nH]c3ccccc13)[C@@](C(=O)OC)(c1cc3c(cc1OC)N(C)[C@H]1[C@@](O)(C(=O)OC)[C@H](OC(C)=O)[C@]4(CC)C=CCN5CC[C@]31[C@@H]54)C2 [Vinorelbine, vinorelbine] | 0.05 µM | 0.065 µM | 1.39 µM | 12 µM | 8.5 µM | 0.03 µM | – | 10 µM | 1.02 µM | % T/C on day 0 (A2780 tumors; [13]): 97.2%; % T/C on day 2 (A2780 tumors; [13]): 88.6%; % T/C on day 5 (A2780 tumors; [13]): 69.3%; % T/C on day 7 (A2780 tumors; [13]): 81.7%; % T/C on day 9 (A2780 tumors; [13]): 77.3%; % T/C on day 0 (A2780 tumors; [14]): 97.6%; % T/C on day 2 (A2780 tumors; [14]): 79.5%; % T/C on day 5 (A2780 tumors; [14]): 45.0%; % T/C on day 7 (A2780 tumors; [14]): 54.2%; % T/C on day 9 (A2780 tumors; [14]): 47.9%
4 | O=C(CCCCCCC(=O)Nc1ccccc1)NO [Vorinostat, vorinostat] | 2.16 µM | – | 2.88 µM | – | – | – | – | – | – | –
5 | CC(=O)O[C@@]12CO[C@@H]1C[C@H](O)[C@@]1(C)C(=O)[C@H](O)C3=C(C)[C@@H](OC(=O)[C@H](O)[C@@H](NC(=O)OC(C)(C)C)c4ccccc4)C[C@@](O)([C@@H](OC(=O)c4ccccc4)[C@H]21)C3(C)C [Docetaxel, docetaxel] | 0.00065 µM | – | 0.0501 µM | 0.0025 µM | 0.000594 µM | 0.00032 µM | 0.003 µM | 0.0186 µM | 0.5 µM | IC50 [10]: 0.1 µM
